Data taken from patent publication EP4043037A1, “CELLULAR HYDRATION COMPOSITIONS CONTAINING CYCLODEXTRINS” (Eastpond Laboratories Limited, priority 2010, dated 2012).

Columns and labels:
[1] = tested on: C. elegans nematodes; assay: C. elegans lifespan in media with additives; assay type: in vivo; conditions: for Animals alive, % of initial (N=50): derivatized cyclodextrin 0.1% w/v in media, USA 1 water; for effect on C. elegans survival: added to culture media; for effect on C. elegans survival / number of animals surviving to old ages: result in words; for Animals alive, (N= % of initial =50): parent cyclodextrin 0.1% w/v in media, USA I water; for number of animals surviving to old ages: after day 15, 0.1 % w/v
Method: C. elegans nematodes were grown in petri-type dishes containing normal nutrient liquid media prepared alternatively with USA 1 water (described in Example 2) lacking any further additive component (control) or the same water supplemented with a parent α-, β-, or γ-cyclodextrin, and/or a bioactive agent, as an active component of cellular hydration. Fifty ⊥ 3 worms were transferred to each dish. Each condition was repeated in triplicate. Experiments were repeated for USA II and BP I waters described in Example 2.
Water additives: A. Addition of parent α-, β- and γ-cvclodcxtrins. B. Addition of L-arginine and nicotinamide. C. Addition of inclusion complexes of cyclodextrins with L-arginine and nicotinamide.

[2] = NIR spectroscopy of water bonding with cyclodextrin additives; assay type: physicochemical
Method: Hydration bond energies in pure waters and solutions of the same waters containing cyclodextrin compounds were assayed using IR spectroscopy in the near and middle infrared ranges. To record linear signals throughout an entire wavelength range, attenuation from water absorbance was minimized with a short optical length cuvette.
NIR range spectra were registered on a FOSS NIR Systems, Inc. 6500 spectrometer and Sample Transport Module (STM) using a 1 mm-es cuvette. […]
Three samples of water were used in the present study. A first water sample (USA I) was obtained from the U.S. and was purified by reverse osmosis, carbon filtration, ultraviolet light exposure, membrane filtration to 0.2 micron absolute, and ozonation. A second water sample (USA II) was also obtained from the U.S. A third water sample (BP I) was obtained from Budapest, Hungary.
The following cyclodextrins were added to the above described water samples at a concentration range of 0.1% - 5% w/v: • α-cyclodextrin (αCD also denoted as ACD), Lot. No. CYL-2322. • β-cyclodextrin (βCD also denoted as BCD). Lot. No. CYL-2518/2. • γ-cyclodextrin (γCD also denoted as GCD), Lot. No. CYL-2323. • 2-hydroxypropyl-β-cyclodextrin (HPβCD, HPBCD), DS^∗ = 3.5, Lot. No. CYL-2232. • 2-hydroxypropyl-γ-cyclodextrin (HPCD, HPGCD), DS^∗ = 4.8, Lot. No. CYL-2258. • carboxymethyl-β-cyclodextrin (CMBCD), Lot. No. CYL-2576. • quaternary-ammonium-β-cyclodextrin (QABCD).

[3] = tested on: Wheat seeds (Triticum aestivum); assay: Wheat seed germination in water with additives; assay type: in vivo
Method: For each condition, ten seeds were placed in continuous water contact in a Petri-type dish kept at 25C in 12 hr light/dark cycles. Photometric images were recorded on days 1 to 6 after seeding. The percentage of seeds germinated was calculated and compared as a function of time and of the applied additive concentrations.
Water samples for seed germination were used alone with no additive, or containing cyclodextrins, or containing clathrate inclusion complexes of cyclodextrin with L-arginine or with nicotinamide (both obtained from Sigma Chemical Co.; St. Louis, MO), or with L-carnitine (from Lonza AG; Switzerland). […] Additive solutions were prepared fresh on the day of germination start.
Germination kinetics in control and additive-modified water under identical conditions were quantified as the percentage of the seeds having a sprout. Each determination consisted of 100 seeds for each parameter. Results are reported in Table 1, below, and in FIGS. 11-13.

[4] = wavelength region 900-1200 nm (FIG. 7)
[5] = day 0, additive 0.5% w/v in USA I water, Table 1
[6] = day 1, additive 0.5% w/v in USA I water, Table 1
[7] = day 2, additive 0.5% w/v in USA I water, Table 1
[8] = day 3, additive 0.5% w/v in USA I water, Table 1
[9] = day 4, additive 0.5% w/v in USA I water, Table 1
[10] = day 0, additive 0.5% w/v in USA 1 water, Table 2, percentage of the seeds having a sprout
[11] = day 1, additive 0.5% w/v in USA 1 water, Table 2, percentage of the seeds having a sprout
[12] = day 2, additive 0.5% w/v in USA 1 water, Table 2, percentage of the seeds having a sprout
[13] = day 3, additive 0.5% w/v in USA 1 water, Table 2, percentage of the seeds having a sprout
[14] = day 4, additive 0.5% w/v in USA 1 water, Table 2, percentage of the seeds having a sprout

water-bond interactions, second-derivative NIR spectra ([2]; 1200-1500 nm (FIG. 8)) | water-bond interactions, second-derivative NIR spectra ([2]; 1620-1710 nm (FIG. 9)) | water-bond interactions, second-derivative NIR spectra ([2]; 2170-2370 nm (FIG. 10)) | water-bond interactions, second-derivative NIR spectra [2, 4] | Compound | Animals alive, % of initial (N=50) ([1]; life span 10 days) | Animals alive, % of initial (N=50) ([1]; life span 15 days) | Animals alive, % of initial (N=50) ([1]; life span 18 days) | Animals alive, (N= % of initial =50) ([1]; life span 10 days) | Animals alive, (N= % of initial =50) ([1]; life span 15 days) | Animals alive, (N= % of initial =50) ([1]; life span 18 days) | also measured
significantly modified | significantly modified | further significantly modified | significantly modified | 2-hydroxy-3-N,N,N-trimethylamino)propyl-β-cyclodextrin chloride [Quaternaryammonium-β-Cyclodextrin] | 98 % of initial | 13 % of initial | 2 % of initial |  |  |  | effect on micro-structure of hydrogen bonds in bulk water (NIR spectral changes) ([2]; comparison among cyclodextrin-treated water samples (FIGS. 9 and 10)): largest
significantly modified | significantly modified | significantly modified | further significantly modified | CC(O)COC[C@H]1O[C@@H]2O[C@H]3[C@H](O)[C@@H](O)[C@@H](O[C@H]4[C@H](O)[C@@H](O)[C@@H](O[C@H]5[C@H](O)[C@@H](O)[C@@H](O[C@H]6[C@H](O)[C@@H](O)[C@@H](O[C@H]7[C@H](O)[C@@H](O)[C@@H](O[C@H]8[C@H](O)[C@@H](O)[C@@H](O[C@H]1[C@H](O)[C@H]2O)O[C@@H]8COCC(C)O)O[C@@H]7COCC(C)O)O[C@@H]6COCC(C)O)O[C@@H]5COCC(C)O)O[C@@H]4COCC(C)O)O[C@@H]3COCC(C)O (stereo partly drawn) [HP-β-Cyclodextrin, 2-hydroxypropyl-β-cyclodextrin] | 96 % of initial | 17 % of initial | 0 % of initial |  |  |  | 
 |  |  |  | N=C(N)NCCC[C@H](N)C(=O)O [L-Arg, L-arginine, reference compound] |  |  |  |  |  |  | wheat seed germination rate [3, 5]: 0 percentage of total seeds; wheat seed germination rate [3, 6]: 0 percentage of total seeds; wheat seed germination rate [3, 7]: 30 percentage of total seeds; wheat seed germination rate [3, 8]: 45 percentage of total seeds; wheat seed germination rate [3, 9]: 60 percentage of total seeds; effect on C. elegans survival [1]: little effect
 |  |  |  | NC(=O)c1cccnc1 [nicotinamide, reference compound] |  |  |  |  |  |  | wheat seed germination rate [3, 10]: 0%; wheat seed germination rate [3, 11]: 0%; wheat seed germination rate [3, 12]: 4%; wheat seed germination rate [3, 13]: 10%; wheat seed germination rate [3, 14]: 60%; effect on C. elegans survival [1]: little effect
 |  |  |  | OC[C@H]1O[C@@H]2O[C@H]3[C@H](O)[C@@H](O)[C@@H](O[C@H]4[C@H](O)[C@@H](O)[C@@H](O[C@H]5[C@H](O)[C@@H](O)[C@@H](O[C@H]6[C@H](O)[C@@H](O)[C@@H](O[C@H]7[C@H](O)[C@@H](O)[C@@H](O[C@H]8[C@H](O)[C@@H](O)[C@@H](O[C@H]1[C@H](O)[C@H]2O)O[C@@H]8CO)O[C@@H]7CO)O[C@@H]6CO)O[C@@H]5CO)O[C@@H]4CO)O[C@@H]3CO [β-Cydodextrin, β-cyclodextrin] |  |  |  | 100 % of initial | 18 % of initial | 0 % of initial | 
further significantly modified | significantly modified | significantly modified | further significantly modified | carboxymethyl-β-cyclodextrin [Carboxymethyl-β-Cydodextrin] | 94 % of initial | 11 % of initial | 0 % of initial |  |  |  | 
 |  |  |  | α-cyclodextrin |  |  |  | 100 % of initial | 20 % of initial | 2 % of initial | wheat seed germination rate [3, 10]: 0%; wheat seed germination rate [3, 5]: 0 percentage of total seeds; wheat seed germination rate [3, 11]: 11%; wheat seed germination rate [3, 6]: 0 percentage of total seeds; wheat seed germination rate [3, 12]: 18%; wheat seed germination rate [3, 7]: 48 percentage of total seeds; wheat seed germination rate [3, 13]: 68%; wheat seed germination rate [3, 8]: 70 percentage of total seeds; wheat seed germination rate [3, 14]: 92%; wheat seed germination rate [3, 9]: 85 percentage of total seeds; number of animals surviving to old ages [1]: significantly increased
 |  |  |  | γ-cyclodextrin |  |  |  | 100 % of initial | 13 % of initial | 2 % of initial | number of animals surviving to old ages [1]: significantly increased
